Patent US5389621A, “Method of enhancing the anticoagulant effects of aspirin using salicylamide” (University of Medicine and Dentistry of New Jersey, priority 1994, dated 1995)
“Also recorded” adds a separate entry of the source. Read-outs that look alike come from different tables or passages of the source. Values belong to the compound of their own block, whether it stands above or below them.

Assays:
[1] = Tissue distribution of 14C-salicylamide (parent) by HPLC; assay type: in vivo, male Sprague-Dawley rats; details: for concentration at 1.5 h: rat
Excerpt: Forty-eight rats were divided into two groups.
The rats were anesthetized by light diethyl ether inhalation.

[2] = cited from earlier work; for Absorption (ASA) / bioavailability (SAM) from oral solution vs solid forms: oral solutions vs tablets or suspensions
[3] = Tissue distribution of aspirin and its metabolites (SA, SUA, GA, DBA) by HPLC after 14C-aspirin; details: for Aspirin level in tissues studied (plasma, lung, liver, heart, kidney): 1.5 hours after 14C-ASA alone or with SAM, low and high doses
Procedure: (§1) Male adult Sprague-Dawley rats (300-325 gm) obtained from Charles River Breeding Laboratory, N. Wilmington, Mass. were quarantined for one week. All animals were identified by ear punching. Food and water were provided ad libitum. The animals were maintained on rodent lab chow diet in a controlled environment with 50% humidity and 12 hour light/dark cycle.
Forty-eight rats were divided into two groups. The first group of rats was administered ASA, SAM or their combination in a dose approximately equal (w/w) to that in the commercially available combinations, e.g., BC® formula, when administered to humans, i.e., 10 and 3 mg/kg of ASA and SAM, respectively. The second group was administered double the dosage received by the first group.
The rats were anesthetized by light diethyl ether inhalation. A blood sample of nearly 3 ml was collected by cardiac puncture 1.5 hours after oral administration. The blood was transferred to chilled polyethylene tubes containing 30 μl of 50% (w/w) potassium fluoride to prevent hydrolysis of ASA. A 300 μl aliquot was pipetted in a scintillation vial to study the distribution in whole blood. The rest of the collected blood was immediately centrifuged at 1800×g for 10 minutes at 4° C. and the plasma was decanted. 100 μl of the plasma were pipetted in a scintillation vial for measurement of the total radioactivity and the rest of the plasma was stored immediately at -70° C. for later study of the distribution of the metabolites.
Liver, kidney, plasma, lung and heart were stored at -70° C. for later study of their content of the metabolites of aspirin or salicylamide using an HPLC method. Liver, kidney and plasma of the rats treated with aspirin or the combination were also investigated for the presence of salicyl glucuronide conjugates by using HPLC and acid hydrolysis assays.
A Waters HPLC system (Waters Chromatography, Division of Millipore, Milford, Mass.) was used, consisting of: Waters 680 automated gradient controller, two model 510 pumps, model U6K universal liquid chromatography injector, Lambda Max model 481 variable wavelength UV/Vis absorbance detector, Data Module 730, 3.9 mm×15 cm NOVA-PAK 4 μm silica packing steel column, C-18 Guard-Pak, Hamilton syringes of 10, 100, and 250 μl capacity (Hamilton Co., Reno, Nev.), and Milli-Q(tm) Millipore water filtration system #CDOFO 1205 (Waters, Division of Millipore, Milford, Mass.).
1--For the analysis of ASA and its metabolites in tissues: the mobile phase was 2% acetic acid/methanol, 95:5, at a flow rate of 1.4 ml/minute.
The detection wavelength was 240 nm and the sensitivity of the detector was 0.02 AUFS (Absorbance Unit Full Scale).

[4] = Excretion study: effect of salicylamide on aspirin excretion; details: for Rate order of excretion of metabolites: first 24 hours, urine
Procedure: as §1
The dose of radiolabeled ASA administered was 5 μCi per rat. Rats were fasted overnight prior to the administration of the treatments.
Rats were gavaged with the treatment solution and were immediately placed in Silverman metabolic glass chambers (Bioserv, Inc., Frenchtown, N.J.), one rat per chamber. Rats were administered water ad libitum while food was withheld until 1.5 hours following treatment administration. Urine was collected at 8, 16, 24, 48 and 72 hours. Feces were collected in preweighed clean plastic cups at 24, 48 and 72 hours after dosing. The expired air was channeled through a series of activated charcoal tubes to trap any radiolabeled compound that is excreted via the lungs and the tubes were collected at the end of the study 72 hours after dosing.
The urine samples were collected and the volume was measured using a 10 ml graduated glass pipette. The urine was shaken, and 100 μl of each urine sample were pipetted in a scintillation vial with 15 ml of Aquasol-2 for radioactivity assessment. The rest of the urine was stored at -70° C. for later analysis of its content of salicylic acid (SA) and salicyluric acid (SUA), the major metabolites of ASA.
Fecal weight was determined for each time-point collection and deionized water was added to feces in a ratio of feces:water, 1:3 (w/w).
The activated charcoal was carefully emptied in small glass tubes and extracted with 1 ml of methanol and the tubes were then centrifuged at 1800×g for 15 minutes.
Urine was further studied for its content of the ASA metabolites, namely SA and SUA. Waters HPLC system (Waters Chromatography, Division of Millipore, Milford, Mass.) with 3.9 mm×15 cm NOVA-PAK 4 μm silica packing steel column, C-18 Guard-Pak, and Milli-Q(tm) Millipore water filtration system were used for the characterization of SA and SUA. An isocratic methodology was developed and the separation was optimal by a mobile phase of 2% acetic acid/methanol, 70:30, at a flow rate of 1 ml/min. and a detection wavelength of 240 nm. One hundred μl of the collected 8 and 16 hour urine samples were diluted with 4 ml of methanol/mobile phase mixture (1:1) while the dilution was only with 2 ml for the 24, 48 and 72 hour urine samples.
The fractions under the specific retentiontimes of SA and SUA were collected in scintillation vials containing 15 ml of the scintillation cocktail and the radioactivity content was counted. The retention times of SA and SUA were determined by injection of authentic standard solution. Corrections have been made for the quenching effect of the mobile phase.
Student-t test and one way analysis of variance (ANOVA) followed by Scheffe multiple range test were used where appropriate. The accepted level of significance of difference was p<0.05.

[5] = oral 14C-ASA 10 mg/kg, alone or with SAM 3 mg/kg
[6] = rat, in vivo, po, 10 mg/kg, 72 h

Compound: CC(=O)Oc1ccccc1C(=O)O [ASA, acetylsalicylic acid]
Change of 14C-SAM in lung by ASA ([1]; low and high dose combinations): significantly lower
Change of 14C-SAM in kidney by ASA ([1]; low dose combination): significantly reduced
Increase of 14C-SAM in liver with ASA ([1]; lower dose combination): about 50%
Apparent volume of distribution ([2]; children): 0.12 to 0.14 L/kg
Fraction reaching the peripheral circulation intact ([2]; oral aspirin, man): about 68%
Time of peak plasma concentration ([2]; oral soluble aspirin preparation, humans): 15 to 25 min
Absorption (ASA) / bioavailability (SAM) from oral solution vs solid forms [2]: superior
Absorption ([2]; oral, stomach and upper small intestine): rapidly and usually completely absorbed
Aspirin level in tissues studied (plasma, lung, liver, heart, kidney) [3]: not detected in the plasma
Aspirin level in tissues studied (plasma, lung, liver, heart, kidney) ([3]; listed as aspirin): not detected
Rate order of excretion of metabolites [4]: first-order rate fashion

14C-SAM in heart ([1]; 14C-SAM 3 mg/kg with or without ASA 10 mg/kg): not detected
14C-SAM in heart ([1]; 1.5 hours, 14C-SAM 6 mg/kg alone or 14C-SAM/ASA 6/20 mg/kg): detected in the heart
concentration at 1.5 h ([1]; heart, oral 14C-SAM 6 mg/kg, alone or with ASA 20 mg/kg, ND = not detected, read-out: 14C-salicylamide in heart): 2.9 ± 1.7 ng/g
concentration at 1.5 h ([1]; kidney, oral 14C-SAM 3 mg/kg, alone or with ASA 10 mg/kg, read-out: 14C-salicylamide in kidney): 152 ± 13.4 ng/g
concentration at 1.5 h ([1]; kidney, oral 14C-SAM 6 mg/kg, alone or with ASA 20 mg/kg, read-out: 14C-salicylamide in kidney): 181 ± 18.3 ng/g
concentration at 1.5 h ([1]; liver, oral 14C-SAM 3 mg/kg, alone or with ASA 10 mg/kg, read-out: 14C-salicylamide in liver): 16.6 ± 5.3 ng/g
concentration at 1.5 h ([1]; liver, oral 14C-SAM 6 mg/kg, alone or with ASA 20 mg/kg, read-out: 14C-salicylamide in liver): 29.4 ± 3.3 ng/g
concentration at 1.5 h ([1]; lung, oral 14C-SAM 3 mg/kg, alone or with ASA 10 mg/kg, read-out: 14C-salicylamide in lung): 17.1 ± 3 ng/g
concentration at 1.5 h ([1]; lung, oral 14C-SAM 6 mg/kg, alone or with ASA 20 mg/kg, read-out: 14C-salicylamide in lung): 41.9 ± 3.9 ng/g
Compound: N[14C](=O)c1ccccc1O [^14 C-SAM]

Parent SAM in plasma ([1]; 1.5 hours, 14C-SAM alone and with ASA, low and high doses): not detected
Change of 14C-SA in kidney (low and high dose) and liver (high dose) ([3]; SAM with 14C-ASA): not markedly altered
Urinary SA, SUA and SA glucuronide, 0-8 hours ([4]; ASA coadministered with SAM vs ASA alone): higher in the urine
Effect on urinary 14C, 0-8 hour period ([4]; SAM coadministered with 14C-ASA): increased
Effect on urinary 14C, 8-28 hour period (so in the source) ([4]; SAM coadministered with 14C-ASA vs 14C-ASA alone): significantly decreased
Urinary content of SA, SUA and SA glucuronide after 0-8 hours ([4]; SAM coadministration vs 14C-ASA alone): decreased
Compound: NC(=O)c1ccccc1O [SAM, Salicylamide]
Absorption (ASA) / bioavailability (SAM) from oral solution vs solid forms [2]: superior
Effect on pattern of excretion of ASA metabolites in urine ([4]; SAM with 14C-ASA, low doses): did not affect the pattern of excretion of ASA metabolites in urine

Compound: CC(=O)Oc1ccccc1[14C](=O)O [^14 C-ASA]
SUA in lung, heart, liver and plasma ([3]; 14C-ASA alone and with SAM): not detected; also recorded: The liver had no detectable level of SUA
Difference in kidney 14C-SUA with or without SAM ([3]; low or high dose): no significant difference
Gentisic acid and 2,3-dihydroxybenzoic acid in tissues ([3]; low or high dose): not detected
14C radioactivity recovered in urine ([4]; 14C-ASA alone or in combination with SAM): Almost all the ^14 C radioactivity
SA share of the radioactivity excreted in urine ([4]; 14C-ASA alone or with SAM): more than 50%
SUA share of the metabolites in urine ([4]; 14C-ASA alone or with SAM): approximately 15%
14C in expired air ([4]; 14C-ASA or 14C-CO2): No radioactivity was found
Absorption from the gut ([4]; 14C-ASA oral): essentially a complete absorption
Rate order of excretion of metabolites [4]: first-order rate pattern
Urinary excretion of 14C, 0-72 hr [4, 5]: 3055 ± 23 μg ^14 C
Urinary excretion of 14C, 8-16 hr [4, 5]: 619 ± 124 μg ^14 C
Urinary excretion of 14C, 16-24 hr [4, 5]: 92 ± 26 μg ^14 C
Urinary excretion of 14C, 24-48 hr [4, 5]: 60 ± 19 μg ^14 C
Urinary excretion of 14C, 48-72 hr [4, 5]: 11 ± 3 μg ^14 C
Urinary excretion of 14C, 0-8 hr ([4]; oral 14C-ASA 10 mg/kg, alone or with SAM 3 mg/kg, mean ± SE, n=6): 2227 ± 138 μg ^14 C
Bioavailability of 14C ([4]; rat, in vivo, po, 10 mg/kg): 100%
14C excreted in feces [4, 6]: 1.0 ± 0.1 percentage of the dose
14C excreted in urine [4, 6]: 100.2 ± 0.8 percentage of the dose
Recovery of the administered dose [4, 6]: 100%
Total Recovery of 14C [4, 6]: 101.7 ± 0.8 percentage of the dose
